The record followed here is patent US4612321A, “5-pyridyl-1,3-thiazole derivatives” (Takeda Chemical Industries, Inc., priority 1983, dated 1986).

Data set [1] deals with Water-immersion stress-induced gastric ulcer. Description: Water-immersion stress-induced gastric ulcer (W.I. Method). Conditions: for W.I. Method (inhibition ratio of ulcer index): rat, 50 mg/kg, 23° C. water immersion for five hours; for anti-ulcer action: statement in words. The class given is in vivo, rats (SD, male). On the procedure: C. Water-immersion stress-induced gastric ulcer (W.I. Method)
Male SD rats (7-weeks old, weighing 190-240 g) were used after a 24 hr. fast in groups of six animals. According to the method of Takagi and Okabe [Jpn. J. Pharmacol., 18, 9 (1968)], the animals were placed in a stress cage made of stainless steel and immersed vertically to the level of xiphoid process in a water bath maintained at 23° C. for five hours. The length (mm) of individual lesions in fundic mucosa was measured under a dissecting microscope with a 1-mm square-grid eye piece (X10), and the sum of the length of individual lesions for each stomach was used as an ulcer index. The ulcer index of the test group was compared with that of the control group, and the inhibition ratio was calculated.

The subject of data set [2] is Phenylquinone writhing syndrome. Description: Analgesic action: Phenylquinone writhing syndrome (P.Q. Method). The class given is in vivo, mice (Slc:ICR, male). Particulars: for P.Q. Method (inhibitory effect on writhing and stretching): mouse, oral, 30 minutes before phenylquinone; for analgesic action: statement in words. On the procedure:
B. Analgesic action: Phenylquinone writhing syndrome (P.Q. Method)
The test was conducted by following the method Siegmund et al. [Proc. Soc. exp. Biol. Med. 95, 729 (1957).] employing a group [ten Slc:ICR mice (male, 4-weeks old, weighing 20±2 g)]. Test compounds were administered orally 30 minutes before intraperitoneal injection of 0.02% phenylquinone by 0.1 ml/body weight of 10 g. Then, the frequency of responses, i.e. writhing and stretching was counted in each animal for 20 minutes. The average frequencies in the test group and the control group were compared, and an inhibitory effect of the compounds on this response was determined.

The test system of data set [3] is Carrageenin edema (right-hind paw). As to the kind of experiment: Anti-inflammatory activity; Carrageenin edema (C.E. Method). Conditions: rat, oral, 1 h before carrageenin; edema measured 3 hr later; dose not given. The class given is in vivo, rats (Jcl: SD, male). On the procedure:
A. Anti-inflammatory activity; Carrageenin edema (C.E. Method)
The anti-inflammatory activities of test compounds were estimated in a group [Six Jcl: SD rats (male, weighing 180-220 g)] by the method of Winter et al. [Proc. Soc. Exp. Biol. 111, 544 (1962)].
After measuring the volume of the right-hind paw (a), the rats were given orally 5 ml of water. One hour after oral administration of the test compounds, 0.05 ml each of a 1% carrageenin solution in physiological saline was subcutaneously injected at the sole of right-hind paw. Three hr. later, the volume of the right-hind paw was measured (b). The volume of edema was obtained from the difference […] between the two volumes. By comparing the volume of edema of the group, to which test compound was administered, with that of the group, to which no test compound was administered, an inhibitory effect of the compound on the edema was determined.
Background: In the carrageenan paw model, swelling and tenderness develop within hours.

In the next data set the test system is mice. As to the kind of experiment: Acute toxicity Test in mice. The class given is in vivo, mice (ICR, male). Conditions: mouse, oral, 500 mg/kg, one week, groups of five. On the procedure: D. Acute toxicity Test in mice
Five-weeks old ICR-male mice were used in groups of five animals. Each animal was orally administered with 500 mg/kg of each test compound. Then, during the subsequent one week, the number of dead animals was counted.

The next data set is described as follows: anti-pyretic action. The class given is in vivo. Conditions: statement in words, no test data.
The next data set has as its system platelet aggregation. Description: platelet aggregation controlling (inhibiting) action. The data set is classed as cell-based. Particulars: statement in words, no test data.
Data set [4] relates to thromboxane A2 (TXA2) synthetase. Description: thromboxane A2 (TXA2) synthetase inhibiting action. The class given is biochemical. Conditions: statement in words, no test data.

Consider `Nc1nc(-c2ccccc2)c(-c2cccnc2)s1` [Compound No. 4], for which the “W.I. Method (inhibition ratio of ulcer index)” value in data set [1] is 74. The “P.Q. Method (inhibitory effect on writhing and stretching)” value in data set [2] (50 mg/kg) is listed as 78.9. Moreover, the “C.E. Method (inhibitory effect on the carrageenin edema)” value in data set [3] is reported as 63.7. The “Acute Toxicity (number of dead animals / animals)” value in the data set with mice was 0/5.
As for `Nc1nc(-c2ccc(O)cc2)c(-c2cccnc2)s1` [compound 9], in data set [1], the “W.I. Method (inhibition ratio of ulcer index)” value amounted to 71. Also, in data set [2] (50 mg/kg), the “P.Q. Method (inhibitory effect on writhing and stretching)” value turned out to be 40.5. The “C.E. Method (inhibitory effect on the carrageenin edema)” value in data set [3] is 16.9. Besides, the “Acute Toxicity (number of dead animals / animals)” value with mice is 0/5.
For the compound `CCNc1nc(-c2ccc3c(c2)CCC3)c(-c2cccnc2)s1` [2-ethylamino-4-(5-indanyl)-5-(3-pyridyl)-1,3-thiazole], the anti-ulcer action entry in data set [1] is “particularly excellent”. Also, the anti-pyretic action entry in the data set “anti-pyretic action” is listed as “particularly excellent”. Moreover, in data set [2], the analgesic action entry is on record as “particularly excellent”.
Turning to `c1ccc(-c2nc(C3CCCCC3)sc2-c2cccnc2)cc1` [2-cyclohexyl-4-phenyl-5-(3-pyridyl)-1,3-thiazole], the “platelet aggregation controlling action” value in the data set on platelet aggregation is “partienlarly excellent”.
With `CCNc1nc(-c2ccc3c(c2)OCO3)c(-c2cccnc2)s1` [2-ethylamino-4-(3,4-methylenedioxyphenyl)-5-(3-pyridyl)-1,3-thiazole], the anti-ulcer action entry in data set [1] is “particularly excellent”. For the same compound, the anti-pyretic action result in “anti-pyretic action” is given as “particularly excellent”. In addition, in data set [2], the analgesic action result is reported as “particularly excellent”.
In the case of `CNc1nc(-c2ccc3c(c2)CCC3)c(-c2cccnc2)s1` [compound 79, 4-(5-indanyl)-2-methylamino-5-(3-pyridyl)-1,3-thiazole], the anti-ulcer action entry in data set [1] is “particularly excellent”. Also, the anti-pyretic action entry in “anti-pyretic action” was “particularly excellent”. Also, the analgesic action result in data set [2] is reported as “particularly excellent”.
As to `COc1ccc(-c2nc(N)sc2-c2cccnc2)cc1` [compound 2, 2-amino-4-(4-methoxyphenyl)-5-(3-pyridyl)-1,3-thiazole], the “W.I. Method (inhibition ratio of ulcer index)” value in data set [1] is 70. Further, the “P.Q. Method (inhibitory effect on writhing and stretching)” value in data set [2] (50 mg/kg) is 52.6. In addition, the “C.E. Method (inhibitory effect on the carrageenin edema)” value in data set [3] is 77.1. In addition, in the data set on mice, the “Acute Toxicity (number of dead animals / animals)” value is on record as 0/5.
With `CCc1nc(-c2ccc(OC)cc2)c(-c2cccnc2)s1` [2-ethyl-4-(4-methoxyphenyl)-5-(3-pyridyl)-1,3-thiazole], the anti-ulcer action result in data set [1] is “particularly excellent”. The anti-pyretic action entry in “anti-pyretic action” is “particularly excellent”. Also, the analgesic action result in data set [2] was “particularly excellent”.
As for `COc1ccc(-c2nc(N)sc2-c2cccnc2)cc1` [2-amino-4-(4-methoxyphenyl)-5-(3-pyridyl)-1,3-thiazole], in data set [1], the anti-ulcer action result was “particularly excellent”. Also, in “anti-pyretic action”, the anti-pyretic action result is listed as “particularly excellent”. Moreover, the analgesic action result in data set [2] was “particularly excellent”.
Consider `COc1ccc(-c2nc(CCCC(=O)O)sc2-c2cccnc2)cc1` [compound 43, 2-(3-carboxypropyl)-4-(4-methoyphenyl)-5-(3-pyridyl)-1,3-thiazole], for which the “thromboxane synthetase inhibiting action” value in data set [4] is on record as “particularly excellent”.
As for `COc1ccc(-c2nc(-c3ccccc3)sc2-c2cccnc2)cc1` [2-phenyl-4-(4-methoxyphenyl)-5-(3-pyridyl)-1,3-thiazole], in the data set on platelet aggregation, the “platelet aggregation controlling action” value was “partienlarly excellent”.
Consider `O=C(O)CCCc1nc(-c2ccccc2)c(-c2cccnc2)s1`, for which the “thromboxane synthetase inhibiting action” value in data set [4] is given as “particularly excellent”.
Turning to `COc1ccc(-c2nc(-c3ccccc3)sc2-c2cccnc2)cc1` [compound 28, 2-phenyl-4-(4-methoxyphenyl)-5-(3-pyridyl)-1,3-thiazole], the “W.I. Method (inhibition ratio of ulcer index)” value in data set [1] is 33. For the same compound, the “P.Q. Method (inhibitory effect on writhing and stretching)” value in data set [2] (50 mg/kg) came out at 63.3. In data set [3], the “C.E. Method (inhibitory effect on the carrageenin edema)” value was found to be 15.7. For the same compound, the “Acute Toxicity (number of dead animals / animals)” value in the data set on mice is 0/5.
Regarding `CNc1nc(-c2ccc3c(c2)OCO3)c(-c2cccnc2)s1` [2-methylamino-4-(3,4-methylenedioxyphenyl)-5-(3-pyridyl)-1,3-thiazole], in data set [1], the anti-ulcer action result is “particularly excellent”. Moreover, the anti-pyretic action result in the data set “anti-pyretic action” was “particularly excellent”. Besides, the analgesic action entry in data set [2] was “particularly excellent”.
Take `Nc1nc(-c2ccccc2)c(-c2ccccn2)s1` [compound 13]: the “W.I. Method (inhibition ratio of ulcer index)” value in data set [1] came out at 66. Moreover, the “P.Q. Method (inhibitory effect on writhing and stretching)” value in data set [2] (50 mg/kg) is listed as 67.5. For the same compound, the “C.E. Method (inhibitory effect on the carrageenin edema)” value in data set [3] is on record as 7.0. The “Acute Toxicity (number of dead animals / animals)” value in the data set with mice is given as 0/5.
On to `CNc1nc(-c2ccc(OC)cc2)c(-c2cccnc2)s1` [Compound No. 1, 4-(4-methoxyphenyl)-2-methylamino-5-(3-pyridyl)-1,3-thiazole], for which, in data set [1], the “W.I. Method (inhibition ratio of ulcer index)” value is listed as 86 and the anti-ulcer action result is reported as “particularly excellent”. Also, the anti-pyretic action result in the data set “anti-pyretic action” was “particularly excellent”. Further, the “P.Q. Method (inhibitory effect on writhing and stretching)” value in data set [2] (25 mg/kg) was found to be 96.8. In data set [2], the analgesic action result is on record as “particularly excellent”. Further, in data set [3], the “C.E. Method (inhibitory effect on the carrageenin edema)” value is recorded as 60. Moreover, the “Acute Toxicity (number of dead animals / animals)” value in the data set on mice is given as 0/5.
`COc1ccc(-c2nc(N)sc2-c2ccncc2)cc1` [compound 17]: the “W.I. Method (inhibition ratio of ulcer index)” value in data set [1] is listed as 79. Also, the “P.Q. Method (inhibitory effect on writhing and stretching)” value in data set [2] (50 mg/kg) was 80.7. The “C.E. Method (inhibitory effect on the carrageenin edema)” value in data set [3] worked out at 48.2. Further, in the data set on mice, the “Acute Toxicity (number of dead animals / animals)” value is reported as 0/5.
Regarding `COc1ccc(-c2nc(C3CCCCC3)sc2-c2cccnc2)cc1` [2-cyclohexyl-4-(4-methoxyphenyl)-5-(3-pyridyl)-1,3-thiazole], in the data set on platelet aggregation, the “platelet aggregation controlling action” value was “partienlarly excellent”.
